# “Also recorded” adds a separate entry of the source.
# What was measured:
# [1] = system: cancer stem cell population (ZsGreen+) established from pancreatic cancer cell line Panc-1; test: Screening of miRNAs: cell count (cell viability) of the cancer stem cell population after transfection; type: cell-based, human; conditions: miRNA 10 pmol/well, lipofectamin 2000, cells counted 48 and 72 hours later, FIG. 4
# Description: A cancer stem cell line was established by transducing a pancreatic cancer cell line (Panc-1) with an ODC (Ornithine Decarboxylase)-Degron system capable of visualizing low metabolism that is a property of cancer stem cells using a retrovirus vector (FIG. 1a). The base sequence coding the used ODC-Degron is as set forth in SEQ ID NO: 10. Usually, cancer stem cells are so 26s proteasome hypometabolic that they cannot degrade the introduced fluorescently labeled Ornithine Decarboxylase Degron, and thus the fluorescent protein sufficiently accumulates to provide visualization.
# However, even when the ODC-degron system was introduced into the pancreatic cancer cell line Panc-1, only about 0.06% cells emitting fluorescence (green) were obtained in total. With such a small number of cancer stem cells, a series of experiments including drug screening cannot be performed. Accordingly, further enrichment of cancer stem cells provided a cancer stem cell population in which cells having observed fluorescent coloring (i.e., cancer stem cells) accounted for about 81.18% in total (FIG. 1b). The obtained cancer stem cell population was designated as ZsGreen+.
# A cell suspension prepared by suspending the cancer stem cell population (ZsGreen+) in a medium (DMEM medium containing 10% by volume FBS) was seeded in each well of a 24-well plate at a density of 5000 to 10000 cells/well, followed by culture at 37° C. overnight. Thereafter, according to the lipofectamin 2000 protocol, each miRNA was transfected at 10 pmol/well, and 48 hours and 72 hours later, the cells were counted. In addition, tests were also conducted under the same condition on a case where the miRNA was not introduced (untreated group, control), a case where has-miR-34a (SEQ ID NO: 8) was used (positive control) in place of the selected miRNA, and a case where a control miRNA (SEQ ID NO: 9) was used (NC1, negative control) in place of the selected miRNA. In addition, for comparison, the non-cancer stem cell population (ZsGreen−) was used in place of the cancer stem cell population (ZsGreen+) to conduct tests under the same condition.
# The ratio of the number of cells under each condition to the number of control cells into which the miRNA was not introduced (cell viability, %) was determined.
# [2] = system: human pancreatic cancer cells (Bxpc3 line); test: Antitumor effect on human pancreatic cancer cells (1), cell count after transfection; type: cell-based; conditions: 10 pmol/well, FIG. 8; for antitumor effect: 48 hours, positive control hsa-miR-34a; for proliferation inhibitory effect on pancreatic cancer cells: cells counted 48 hours later
# Experimental: (§1) A cell suspension prepared by suspending human pancreatic cancer cells (Bxpc3 line) in D-MEM medium (containing 10% by volume FBS) was seeded in each well of a 24-well plate at 3×10^3 cells/well, followed by culture at 37° C. overnight. Thereafter, according to the lipofectamin 2000 protocol, each miRNA was transfected at 10 pmol/well, and 48 hours later, the cells were counted. In addition, tests were also conducted under the same condition on a case where the miRNA was not introduced (untreated group), a case where hsa-miR-34a (SEQ ID NO: 8) was used (positive control) in place of the miRNA, and a case where a control miRNA (SEQ ID NO: 9) was used (control miRNA, negative control) in place of the selected miRNA.
# [3] = system: human pancreatic cancer cells (PSN-1 line); test: Antitumor effect on human pancreatic cancer cells (2), cell count after transfection; type: cell-based; conditions: 10 pmol/well, 48 hours, FIG. 9
# Experimental: as §1
# As to hsa-miR-136-5p, hsa-miR-3065-3p and hsa-miR-181a-5p, evaluation was performed of the antitumor effect on human pancreatic cancer cells. The specific test method is the same as that for Test Example 4 except that a PSN-1 line was used as human pancreatic cancer cells.
# [4] = system: human large bowel cancer cells (DLD1 line); test: Antitumor effect on human large bowel cancer cells, cell count after transfection; type: cell-based; conditions: 10 pmol/well, FIG. 11; for antitumor effect: 72 hours, positive control hsa-miR-34a; for proliferation inhibitory effect on large bowel cancer cells: cells counted 72 hours after transfection
# Experimental: as §1
# (§2) As to hsa-miR-136-5p, hsa-miR-3065-3p, hsa-miR-4727-5p, hsa-miR-378g, hsa-miR-181a-5p, hsa-miR-362-5p and hsa-miR-608, evaluation was performed of the antitumor effect on human large bowel cancer cells. The specific test method is the same as that for Test Example 4 except that human large bowel cancer cells (DLD1 line) were used as cancer cells, and that the cells were counted 72 hours after transfection.
# [5] = system: human esophageal cancer cells (TE11 line); test: Antitumor effect on human esophageal cancer cells, cell count after transfection; type: cell-based; conditions: 10 pmol/well, FIG. 12; for antitumor effect: 72 hours, positive control hsa-miR-34a; for proliferation inhibitory effect on esophageal cancer cells: cells counted 72 hours after transfection
# Experimental: as §1
# as §2, with “hsa-miR-378g and” for “hsa-miR-378g,”, “hsa-miR-181a-5p,” for “hsa-miR-181a-5p, hsa-miR-362-5p and hsa-miR-608,”, “esophageal” for “large bowel”, “(TE11” for “(DLD1”
Substance,proliferation inhibitory effect on cancer stem cells (cell viability) [1],antitumor effect [2],proliferation inhibitory effect on pancreatic cancer cells [2],antitumor effect [3],proliferation inhibitory effect on pancreatic cancer cells [3],antitumor effect [4],proliferation inhibitory effect on large bowel cancer cells [4],antitumor effect [5],proliferation inhibitory effect on esophageal cancer cells [5]
"hsa-miR-136-5p: human-derived miR-136-5p; base sequence set forth in SEQ ID NO: 1 as mature miRNA (ACUCCAUUUGUUUUGAUGAUGGA; listed as RNA, chemistry not given here; listed as Homo sapiens)",effectively suppress proliferation of cancer stem cells; also recorded: prominent proliferation inhibitory effect,much better antitumor effect than that of hsa-miR-34a; also recorded: particularly remarkable antitumor effect,strong proliferation inhibitory effect,particularly remarkable antitumor effect,strong proliferation inhibitory effect,much better antitumor effect than that of hsa-miR-34a; also recorded: particularly remarkable antitumor effect,strong proliferation inhibitory effect,much better antitumor effect than that of hsa-miR-34a,strong proliferation inhibitory effect
"hsa-miR-3065-3p: human-derived miR-3065-3p; base sequence set forth in SEQ ID NO: 2 as mature miRNA (UCAGCACCAGGAUAUUGUUGGAG; listed as RNA, chemistry not given here; listed as Homo sapiens)",effectively suppress proliferation of cancer stem cells; also recorded: prominent proliferation inhibitory effect,much better antitumor effect than that of hsa-miR-34a,strong proliferation inhibitory effect,,strong proliferation inhibitory effect,much better antitumor effect than that of hsa-miR-34a; also recorded: particularly remarkable antitumor effect,strong proliferation inhibitory effect,much better antitumor effect than that of hsa-miR-34a; also recorded: particularly remarkable antitumor effect,strong proliferation inhibitory effect

# Source: patent publication US11439657B2, “Cancer stem cell growth inhibitor using miRNA” (CancerStem Tech Inc., priority 2017, dated 2022)
